Results as given in the supplement of paper PMC10307832.

How the values were obtained:
Assay in all cases: relative viability (nuclei count vs DMSO), 5 days (fraction); higher = more cells survive
NCI-H2347 = test system: NCI-H2347
In short: (§1)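 Five library-drug doses in √10 steps were combined with a fixed anchor-drug dose, or a single drug was given alone, by pin tool to lung cancer cell lines in 1536-well plates the day after seeding. Nuclei were stained and counted after 5 days. Relative viability is the nuclei count in treated wells over that in vehicle wells, taken as the median of duplicate plates.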

NCI-H1915 = test system: NCI-H1915
In short: as §1

NCI-H1993 = test system: NCI-H1993
In short: as §1

NCI-H1651 = test system: NCI-H1651
In short: as §1

COR-L23 = test system: COR-L23
In short: as §1

PC-14 = test system: PC-14
In short: as §1

EPLC-272H = test system: EPLC-272H
In short: as §1

LU99A = test system: LU99A
In short: as §1

NCI-H2023 = test system: NCI-H2023
In short: as §1

NCI-H838 = test system: NCI-H838
In short: as §1

NCI-H1355 = test system: NCI-H1355
In short: as §1

HCC-78 = test system: HCC-78
In short: as §1

HCC-15 = test system: HCC-15
In short: as §1

ABC-1 = test system: ABC-1
In short: as §1

UMC-11 = test system: UMC-11
In short: as §1

HARA = test system: HARA
In short: as §1

NCI-H2085 = test system: NCI-H2085
In short: as §1

NCI-H650 = test system: NCI-H650
In short: as §1

NCI-H2126 = test system: NCI-H2126
In short: as §1

LC-2-ad = test system: LC-2-ad
In short: as §1

SW 1573 = test system: SW 1573
In short: as §1

NCI-H358 = test system: NCI-H358
In short: as §1

NCI-H2342 = test system: NCI-H2342
In short: as §1

## NC(=O)Nc1cc(-c2cccc(F)c2)sc1C(=O)N[C@H]1CCCNC1 [AZD7762] + O=C(CCCCCCC(=O)Nc1ccccc1)NO [Vorinostat] (partner 1 µM)
NCI-H2347; first compound 0.01 µM
  relative viability: 0.554
NCI-H2347; first compound 0.03162 µM
  relative viability: 0.711
NCI-H2347; first compound 0.1 µM
  relative viability: 0.557
NCI-H2347; first compound 0.3162 µM
  relative viability: 0.637
NCI-H2347; first compound 1 µM
  relative viability: 0.547
NCI-H1915; first compound 0.01 µM
  relative viability: 0.567
NCI-H1915; first compound 0.03162 µM
  relative viability: 0.526
NCI-H1915; first compound 0.1 µM
  relative viability: 0.462
NCI-H1915; first compound 0.3162 µM
  relative viability: 0.474
NCI-H1915; first compound 1 µM
  relative viability: 0.373
NCI-H1993; first compound 0.01 µM
  relative viability: 0.764
NCI-H1993; first compound 0.03162 µM
  relative viability: 0.729
NCI-H1993; first compound 0.1 µM
  relative viability: 0.725
NCI-H1993; first compound 0.3162 µM
  relative viability: 0.813
NCI-H1993; first compound 1 µM
  relative viability: 0.391
NCI-H1651; first compound 0.01 µM
  relative viability: 0.569
NCI-H1651; first compound 0.03162 µM
  relative viability: 0.727
NCI-H1651; first compound 0.1 µM
  relative viability: 0.587
NCI-H1651; first compound 0.3162 µM
  relative viability: 0.533
NCI-H1651; first compound 1 µM
  relative viability: 0.272
COR-L23; first compound 0.01 µM
  relative viability: 0.562
COR-L23; first compound 0.03162 µM
  relative viability: 0.423
COR-L23; first compound 0.1 µM
  relative viability: 0.246
COR-L23; first compound 0.3162 µM
  relative viability: 0.129
COR-L23; first compound 1 µM
  relative viability: 0.0864
PC-14; first compound 0.01 µM
  relative viability: 0.761
PC-14; first compound 0.03162 µM
  relative viability: 0.591
PC-14; first compound 0.1 µM
  relative viability: 0.57
PC-14; first compound 0.3162 µM
  relative viability: 0.292
PC-14; first compound 1 µM
  relative viability: 0.0419
EPLC-272H; first compound 0.01 µM
  relative viability: 0.705
EPLC-272H; first compound 0.03162 µM
  relative viability: 0.543
EPLC-272H; first compound 0.1 µM
  relative viability: 0.383
EPLC-272H; first compound 0.3162 µM
  relative viability: 0.107
EPLC-272H; first compound 1 µM
  relative viability: 0.0642
LU99A; first compound 0.01 µM
  relative viability: 0.469
LU99A; first compound 0.03162 µM
  relative viability: 0.536
LU99A; first compound 0.1 µM
  relative viability: 0.561
LU99A; first compound 0.3162 µM
  relative viability: 0.345
LU99A; first compound 1 µM
  relative viability: 0.171
NCI-H2023; first compound 0.01 µM
  relative viability: 0.548
NCI-H2023; first compound 0.03162 µM
  relative viability: 0.415
NCI-H2023; first compound 0.1 µM
  relative viability: 0.257
NCI-H2023; first compound 0.3162 µM
  relative viability: 0.184
NCI-H2023; first compound 1 µM
  relative viability: 0.0942
NCI-H838; first compound 0.01 µM
  relative viability: 0.731
NCI-H838; first compound 0.03162 µM
  relative viability: 0.726
NCI-H838; first compound 0.1 µM
  relative viability: 0.76
NCI-H838; first compound 0.3162 µM
  relative viability: 0.745
NCI-H838; first compound 1 µM
  relative viability: 0.272
NCI-H1355; first compound 0.01 µM
  relative viability: 0.609
NCI-H1355; first compound 0.03162 µM
  relative viability: 0.629
NCI-H1355; first compound 0.1 µM
  relative viability: 0.649
NCI-H1355; first compound 0.3162 µM
  relative viability: 0.647
NCI-H1355; first compound 1 µM
  relative viability: 0.379
HCC-78; first compound 0.01 µM
  relative viability: 0.496
HCC-78; first compound 0.03162 µM
  relative viability: 0.469
HCC-78; first compound 0.1 µM
  relative viability: 0.498
HCC-78; first compound 0.3162 µM
  relative viability: 0.425
HCC-78; first compound 1 µM
  relative viability: 0.349
HCC-15; first compound 0.01 µM
  relative viability: 0.844
HCC-15; first compound 0.03162 µM
  relative viability: 0.691
HCC-15; first compound 0.1 µM
  relative viability: 0.908
HCC-15; first compound 0.3162 µM
  relative viability: 0.734
HCC-15; first compound 1 µM
  relative viability: 0.723
ABC-1; first compound 0.01 µM
  relative viability: 0.847
ABC-1; first compound 0.03162 µM
  relative viability: 1.47
ABC-1; first compound 0.1 µM
  relative viability: 1.04
ABC-1; first compound 0.3162 µM
  relative viability: 0.976
ABC-1; first compound 1 µM
  relative viability: 0.314
UMC-11; first compound 0.01 µM
  relative viability: 0.373
UMC-11; first compound 0.03162 µM
  relative viability: 0.297
UMC-11; first compound 0.1 µM
  relative viability: 0.324
UMC-11; first compound 0.3162 µM
  relative viability: 0.271
UMC-11; first compound 1 µM
  relative viability: 0.194
HARA; first compound 0.01 µM
  relative viability: 0.454
HARA; first compound 0.03162 µM
  relative viability: 0.483
HARA; first compound 0.1 µM
  relative viability: 0.509
HARA; first compound 0.3162 µM
  relative viability: 0.503
HARA; first compound 1 µM
  relative viability: 0.451
NCI-H2085; first compound 0.01 µM
  relative viability: 0.788
NCI-H2085; first compound 0.03162 µM
  relative viability: 0.784
NCI-H2085; first compound 0.1 µM
  relative viability: 0.862
NCI-H2085; first compound 0.3162 µM
  relative viability: 0.803
NCI-H2085; first compound 1 µM
  relative viability: 0.628
NCI-H650; first compound 0.01 µM
  relative viability: 0.435
NCI-H650; first compound 0.03162 µM
  relative viability: 0.404
NCI-H650; first compound 0.1 µM
  relative viability: 0.411
NCI-H650; first compound 0.3162 µM
  relative viability: 0.399
NCI-H650; first compound 1 µM
  relative viability: 0.334
NCI-H2126; first compound 0.01 µM
  relative viability: 0.688
NCI-H2126; first compound 0.03162 µM
  relative viability: 0.867
NCI-H2126; first compound 0.1 µM
  relative viability: 0.735
NCI-H2126; first compound 0.3162 µM
  relative viability: 0.773
NCI-H2126; first compound 1 µM
  relative viability: 0.775
LC-2-ad; first compound 0.01 µM
  relative viability: 0.724
LC-2-ad; first compound 0.03162 µM
  relative viability: 0.755
LC-2-ad; first compound 0.1 µM
  relative viability: 0.749
LC-2-ad; first compound 0.3162 µM
  relative viability: 0.647
LC-2-ad; first compound 1 µM
  relative viability: 0.448
SW 1573; first compound 0.01 µM
  relative viability: 1.16
SW 1573; first compound 0.03162 µM
  relative viability: 0.994
SW 1573; first compound 0.1 µM
  relative viability: 0.821
SW 1573; first compound 0.3162 µM
  relative viability: 0.648
SW 1573; first compound 1 µM
  relative viability: 0.102
NCI-H358; first compound 0.01 µM
  relative viability: 0.687
NCI-H358; first compound 0.03162 µM
  relative viability: 0.667
NCI-H358; first compound 0.1 µM
  relative viability: 0.658
NCI-H358; first compound 0.3162 µM
  relative viability: 0.346
NCI-H358; first compound 1 µM
  relative viability: 0.0934
NCI-H2342; first compound 0.01 µM
  relative viability: 0.715
NCI-H2342; first compound 0.03162 µM
  relative viability: 0.85
NCI-H2342; first compound 0.1 µM
  relative viability: 0.722
NCI-H2342; first compound 0.3162 µM
  relative viability: 0.74
NCI-H2342; first compound 1 µM
  relative viability: 0.633
